Data taken from patent US20240342159A1, “VALBENAZINE FOR USE IN THE ADD-ON TREATMENT OF SCHIZOPHRENIA” (Neurocrine Biosciences, Inc., priority 2021, published 2024).

Assays:
[1] = tested on: cytochrome P450 (CYP) enzyme; experiment: cytochrome P450 (CYP) enzyme inhibition or induction; assay type: in vitro ADME; conditions: at pharmacologically relevant concentrations
[2] = biological target: P-glycoprotein (Homo sapiens, UniProt P08183); experiment: P-glycoprotein inhibition; assay type: in vitro ADME; conditions: only at concentrations that could be achieved in the gastrointestinal tract
Chain of P-glycoprotein (P08183 whole entry): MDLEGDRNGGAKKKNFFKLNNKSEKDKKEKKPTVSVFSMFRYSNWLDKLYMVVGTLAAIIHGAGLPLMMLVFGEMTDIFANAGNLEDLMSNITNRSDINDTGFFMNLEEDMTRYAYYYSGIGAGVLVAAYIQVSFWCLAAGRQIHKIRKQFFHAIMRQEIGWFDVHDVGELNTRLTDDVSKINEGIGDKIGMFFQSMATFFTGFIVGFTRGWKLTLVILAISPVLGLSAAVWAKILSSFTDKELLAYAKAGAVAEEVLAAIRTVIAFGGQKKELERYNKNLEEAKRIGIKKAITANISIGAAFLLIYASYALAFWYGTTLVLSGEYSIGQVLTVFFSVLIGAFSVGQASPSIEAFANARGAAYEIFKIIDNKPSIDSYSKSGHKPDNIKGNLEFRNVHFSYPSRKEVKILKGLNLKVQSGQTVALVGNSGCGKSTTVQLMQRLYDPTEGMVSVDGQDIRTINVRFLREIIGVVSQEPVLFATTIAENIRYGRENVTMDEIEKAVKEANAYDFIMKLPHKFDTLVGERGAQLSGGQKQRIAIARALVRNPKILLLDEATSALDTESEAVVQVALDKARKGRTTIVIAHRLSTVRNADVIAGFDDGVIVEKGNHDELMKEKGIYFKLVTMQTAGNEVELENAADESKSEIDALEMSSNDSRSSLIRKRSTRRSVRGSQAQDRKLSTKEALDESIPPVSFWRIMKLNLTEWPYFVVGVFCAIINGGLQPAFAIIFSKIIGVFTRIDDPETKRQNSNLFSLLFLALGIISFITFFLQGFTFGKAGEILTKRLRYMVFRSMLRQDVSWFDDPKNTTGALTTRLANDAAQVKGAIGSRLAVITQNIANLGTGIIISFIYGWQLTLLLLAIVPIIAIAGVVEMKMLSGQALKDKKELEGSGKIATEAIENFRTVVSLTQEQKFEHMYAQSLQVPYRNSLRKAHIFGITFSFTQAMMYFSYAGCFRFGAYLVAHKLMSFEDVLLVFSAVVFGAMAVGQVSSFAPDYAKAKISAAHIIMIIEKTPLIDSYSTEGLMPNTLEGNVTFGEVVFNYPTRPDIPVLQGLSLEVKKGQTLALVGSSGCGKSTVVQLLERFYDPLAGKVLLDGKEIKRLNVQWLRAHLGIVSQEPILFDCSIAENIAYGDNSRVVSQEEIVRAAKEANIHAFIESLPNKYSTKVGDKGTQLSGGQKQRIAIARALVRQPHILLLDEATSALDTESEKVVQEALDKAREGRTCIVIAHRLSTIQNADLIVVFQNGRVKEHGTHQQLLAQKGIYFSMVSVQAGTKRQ

[3] = tested on: panel of other drug transporters; experiment: inhibition of a panel of other drug transporters; assay type: in vitro ADME
[4] = metabolism of valbenazine by hydrolysis; assay type: in vitro ADME
[5] = tested on: mice; experiment: repeat-dose nonclinical toxicology study, mouse; assay type: in vivo
[6] = tested on: rats; experiment: repeat-dose nonclinical toxicology study, rat; assay type: in vivo
[7] = tested on: dogs; experiment: repeat-dose nonclinical toxicology study, dog; assay type: in vivo
[8] = central nervous system, respiratory and cardiovascular safety pharmacology studies; assay type: in vivo; conditions: compared with human exposure
[9] = rat fertility study; assay type: in vivo; conditions: rat, in vivo
[10] = tested on: rat fertility; experiment: rat fertility study; assay type: in vivo; conditions: 10 mg/kg/day
[11] = embryo/fetal development study, rats; assay type: in vivo, rat; conditions: rat, in vivo
Experimental: (§1) The NOAEL for embryo/fetal development in rats and rabbits was 15 mg/kg/day and 50 mg/kg/day, respectively. […] Valbenazine was negative in genotoxicity assays (in vitro Ames and chromosomal aberration assays and an in vivo rat micronucleus test).

[12] = tested on: rats; experiment: embryo/fetal development study, rats; assay type: in vivo, rat
Experimental: as §1

[13] = embryo/fetal development study, rabbits; assay type: in vivo, rabbit; conditions: rabbit, in vivo
Experimental: as §1

[14] = tested on: rabbits; experiment: embryo/fetal development study, rabbits; assay type: in vivo, rabbit
Experimental: as §1

[15] = in vitro Ames genotoxicity assay; assay type: cell-based
Experimental: as §1

[16] = in vitro chromosomal aberration assay; assay type: cell-based
Experimental: as §1

[17] = tested on: rat; experiment: in vivo rat micronucleus test
Experimental: as §1

[18] = tested on: rats; experiment: carcinogenicity study, rats; assay type: in vivo, rat
[19] = tested on: hemizygous Tg.rasH2 mice; experiment: carcinogenicity study, hemizygous Tg.rasH2 mice; assay type: in vivo, mouse
[20] = tested on: adults with TD; experiment: adverse reactions in 3 placebo-controlled studies in adults with tardive dyskinesia; assay type: in vivo, human; conditions: 6-week treatment
[21] = tested on: pediatric subjects with TS; experiment: treatment-emergent adverse events in pediatric subjects with Tourette Syndrome; assay type: in vivo, human; conditions: higher incidence than placebo
Excerpt: (§2) Common treatment-emergent adverse events (TEAEs) in pediatric subjects with TS with incidence >5% in the valbenazine treatment groups and with a higher incidence than placebo include headache, somnolence, sedation, upper respiratory tract infection, insomnia, fatigue, vomiting, and suicidal ideation. In the entire valbenazine clinical development program as of 10 Apr. 2021, treatment-emergent serious adverse events (SAEs) occurring in 3 or more valbenazine-treated subjects each were schizophrenia, suicidal ideation, chronic obstructive pulmonary disease, syncope, abdominal pain, depression, mental status changes, and schizoaffective disorder.

[22] = tested on: valbenazine-treated subjects; experiment: serious adverse events and deaths in the entire valbenazine clinical development program; assay type: in vivo, human
Excerpt: as §2
Ten deaths have been reported in completed and ongoing valbenazine studies conducted by NBI: 9 occurred in adult subjects with TD and 1 adult subject with HD. Eight deaths occurred in subjects taking valbenazine, 1 occurred in a subject taking placebo, and 1 remains blinded.

[23] = tested on: QT interval; experiment: QT interval prolongation in clinical use; assay type: in vivo, human
[24] = clinical safety signals (cardiovascular, laboratory, vital signs, serum prolactin, suicidality); assay type: in vivo, human
[25] = biological target: CYP2D6 (Homo sapiens, UniProt P10635); experiment: metabolism of NBI-98782 by CYP2D6; assay type: in vitro ADME
Chain of CYP2D6 (P10635 whole entry): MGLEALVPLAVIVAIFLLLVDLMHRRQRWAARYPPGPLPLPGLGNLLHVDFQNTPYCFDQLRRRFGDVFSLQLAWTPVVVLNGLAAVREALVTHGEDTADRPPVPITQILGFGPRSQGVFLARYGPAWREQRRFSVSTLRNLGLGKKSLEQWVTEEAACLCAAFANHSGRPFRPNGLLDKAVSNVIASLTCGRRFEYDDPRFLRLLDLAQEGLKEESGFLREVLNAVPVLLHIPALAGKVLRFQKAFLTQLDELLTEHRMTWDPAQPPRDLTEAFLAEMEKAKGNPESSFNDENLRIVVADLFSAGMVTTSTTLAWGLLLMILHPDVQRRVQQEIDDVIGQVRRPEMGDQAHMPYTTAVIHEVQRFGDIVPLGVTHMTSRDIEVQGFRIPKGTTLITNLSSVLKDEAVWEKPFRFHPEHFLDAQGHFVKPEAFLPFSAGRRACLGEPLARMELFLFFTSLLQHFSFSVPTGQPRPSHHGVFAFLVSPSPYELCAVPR

COc1cc2c(cc1OC)[C@H]1C[C@@H](OC(=O)[C@@H](N)C(C)C)[C@H](CC(C)C)CN1CC2 [Valbenazine, L-valine, (2R,3R,11bR)-1,3,4,6,7,11b-hexahydro-9,10-dimethoxy-3-(2-methylpropyl)-2H-benzo[a]quinolizin-2-yl ester]
CYP enzyme inhibition or induction [1]: little or no cytochrome P450 (CYP) enzyme inhibition or induction
inhibition of P-glycoprotein [2]: moderate inhibitor
inhibition of a panel of other drug transporters [3]: not an inhibitor
metabolic pathway [4]: metabolized by hydrolysis to NBI-98782
dose with no adverse effects, repeat-dose toxicology [5]: 60 mg/kg/day
dose with no adverse effects, repeat-dose toxicology [6]: 3 mg/kg/day
dose with no adverse effects, repeat-dose toxicology [7]: 15 mg/kg/day
systemic exposures at the NOAEL in safety pharmacology studies [8]: above those achieved at the highest proposed therapeutic dose in humans
NOAEL [9]: 3 mg/kg/day
effect on rat fertility [10]: modest negative effect
NOAEL [11]: 15 mg/kg/day
teratogenicity [12]: no evidence of teratogenicity
NOAEL [13]: 50 mg/kg/day
teratogenicity [14]: no evidence of teratogenicity
genotoxicity, Ames assay [15]: negative
genotoxicity, chromosomal aberration assay [16]: negative
genotoxicity, rat micronucleus test [17]: negative
tumors in carcinogenicity study [18]: did not increase tumors
tumors in carcinogenicity study [19]: did not increase tumors
incidence of anticholinergic effects (dry mouth, constipation, disturbance in attention, vision blurred, urinary retention) [20]: 5.4%
incidence of balance disorders/fall (fall, gait disturbance, dizziness, balance disorder) [20]: 4.1%
incidence of somnolence (somnolence, fatigue, sedation) [20]: 10.9%
incidence of common TEAEs: headache, somnolence, sedation, upper respiratory tract infection, insomnia, fatigue, vomiting, suicidal ideation [21]: > 5%
relationship of deaths to study drug ([22]; all ten deaths): not related or unlikely related
deaths in subjects taking valbenazine ([22]; of ten deaths in completed and ongoing studies): Eight
degree of QT prolongation ([23]; at concentrations expected with recommended dosing): not clinically significant
QT prolongation with higher valbenazine concentrations ([23]; subjects taking a strong CYP2D6 or CYP3A4 inhibitor, or CYP2D6 poor metabolizers): QT prolongation clinically significant
cardiovascular, laboratory or vital sign related safety signals ([24]; human, in vivo): No cardiovascular, laboratory, or vital sign related safety signals
suicidality ([24]; human, in vivo): does not appear to increase suicidality
serum prolactin ([24]; mean changes with placebo considerably smaller): Increases in serum prolactin above normal laboratory ranges

(+)-α-3-isobutyl-9,10-dimethoxy-1,3,4,6,7,11b-hexahydro-2H-pyrido[2,1-a]isoquinolin-2-ol [NBI-98782]
subsequent metabolism [25]: metabolized in part by CYP2D6
systemic exposures at the NOAEL in safety pharmacology studies [8]: above those achieved at the highest proposed therapeutic dose in humans
